Results taken from patent US11912682B2, “Isoindolinone compounds” (Monte Rosa Therapeutics, Inc., priority 2021, dated 2024).

Molecular target: GSPT1 (Homo sapiens (Human), UniProt P15170+Q96SW2)
Assay: immunofluorescence assay for GSPT1 degradation in CAL-51 cells (Example 10)
Format: cell-based
Conditions: CAL-51 cells, 6 h; read-out: IF Class (GSPT1 degradation DC50)
Experimental: The representative compounds were tested in an immunofluorescence assay for their activity to degrade GSPT1. […] Compounds were stored at 10 mM DMSO stocks. […] Cells were subsequently rinsed with PBS and fixed in 10% Formalin solution (50 μl, Sigma HT5011)) for 20 mins at room temperature. […] Following three further PBS washes, 50 μL blocking buffer (1% BSA, Sigma A4503, in PBS) was added for 45 min for signal-to noise reduction. Primary antibody (human GSPT1, Sigma HPA052488) was diluted in blocking buffer (dil.1/300, 35 μL/well) and incubated with the cells overnight at 4° C. […] After three final PBS washes, samples were conserved in 100 μL PBS in the dark, until measurement. Image acquisition was performed on the Operetta High-Content Imager (Perkin-Elmer). […] For the determination of GSPT1 DC50 values, a custom algorithm implemented in the PerkinElmer image analysis software Harmony-Acapella® was developed. After user-defined setting of adjustment parameters, the analysis was run identically without human intervention for all image fields. DAPI staining of the nuclei was used to determine the location of cells using standard nuclei detection modules. Segmentation artifacts were removed by threshold-based filters for area, roundness and intensity. The outline of the cells was determined analogously from the sum of the normalized, smoothed DAPI and Actin channel, starting from each nucleus. […] GSPT1 degradation (DC50) was calculated after normalization to controls and data import in CDD vault Database, using non-linear regression.

GSPT1, sequence (P15170 whole entry): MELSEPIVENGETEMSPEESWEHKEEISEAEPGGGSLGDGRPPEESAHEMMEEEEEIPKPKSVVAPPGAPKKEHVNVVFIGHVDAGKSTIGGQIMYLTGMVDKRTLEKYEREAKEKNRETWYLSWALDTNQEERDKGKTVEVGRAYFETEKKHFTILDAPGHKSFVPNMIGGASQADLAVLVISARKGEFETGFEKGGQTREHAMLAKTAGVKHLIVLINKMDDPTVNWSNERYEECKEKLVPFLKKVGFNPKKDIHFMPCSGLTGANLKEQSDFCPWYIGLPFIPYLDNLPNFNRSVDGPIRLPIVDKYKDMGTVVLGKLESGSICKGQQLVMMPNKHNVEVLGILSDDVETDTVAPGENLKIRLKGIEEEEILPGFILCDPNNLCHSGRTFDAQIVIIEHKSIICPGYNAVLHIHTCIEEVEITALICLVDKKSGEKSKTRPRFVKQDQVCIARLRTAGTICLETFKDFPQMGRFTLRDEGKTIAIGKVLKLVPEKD
GSPT1, sequence (Q96SW2 whole entry): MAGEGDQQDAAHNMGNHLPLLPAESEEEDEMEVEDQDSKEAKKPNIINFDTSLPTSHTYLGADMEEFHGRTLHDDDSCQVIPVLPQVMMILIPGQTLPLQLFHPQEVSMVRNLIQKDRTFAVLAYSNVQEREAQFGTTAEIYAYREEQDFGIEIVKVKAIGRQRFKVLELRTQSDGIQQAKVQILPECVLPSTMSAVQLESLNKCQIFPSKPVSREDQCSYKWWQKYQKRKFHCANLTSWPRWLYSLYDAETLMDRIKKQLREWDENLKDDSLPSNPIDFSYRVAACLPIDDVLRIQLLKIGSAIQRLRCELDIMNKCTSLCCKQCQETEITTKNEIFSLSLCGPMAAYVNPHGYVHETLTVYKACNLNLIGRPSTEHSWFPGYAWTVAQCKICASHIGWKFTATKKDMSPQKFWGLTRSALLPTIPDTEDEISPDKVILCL
GSPT1, sequence (Q16531 2-1140 partner): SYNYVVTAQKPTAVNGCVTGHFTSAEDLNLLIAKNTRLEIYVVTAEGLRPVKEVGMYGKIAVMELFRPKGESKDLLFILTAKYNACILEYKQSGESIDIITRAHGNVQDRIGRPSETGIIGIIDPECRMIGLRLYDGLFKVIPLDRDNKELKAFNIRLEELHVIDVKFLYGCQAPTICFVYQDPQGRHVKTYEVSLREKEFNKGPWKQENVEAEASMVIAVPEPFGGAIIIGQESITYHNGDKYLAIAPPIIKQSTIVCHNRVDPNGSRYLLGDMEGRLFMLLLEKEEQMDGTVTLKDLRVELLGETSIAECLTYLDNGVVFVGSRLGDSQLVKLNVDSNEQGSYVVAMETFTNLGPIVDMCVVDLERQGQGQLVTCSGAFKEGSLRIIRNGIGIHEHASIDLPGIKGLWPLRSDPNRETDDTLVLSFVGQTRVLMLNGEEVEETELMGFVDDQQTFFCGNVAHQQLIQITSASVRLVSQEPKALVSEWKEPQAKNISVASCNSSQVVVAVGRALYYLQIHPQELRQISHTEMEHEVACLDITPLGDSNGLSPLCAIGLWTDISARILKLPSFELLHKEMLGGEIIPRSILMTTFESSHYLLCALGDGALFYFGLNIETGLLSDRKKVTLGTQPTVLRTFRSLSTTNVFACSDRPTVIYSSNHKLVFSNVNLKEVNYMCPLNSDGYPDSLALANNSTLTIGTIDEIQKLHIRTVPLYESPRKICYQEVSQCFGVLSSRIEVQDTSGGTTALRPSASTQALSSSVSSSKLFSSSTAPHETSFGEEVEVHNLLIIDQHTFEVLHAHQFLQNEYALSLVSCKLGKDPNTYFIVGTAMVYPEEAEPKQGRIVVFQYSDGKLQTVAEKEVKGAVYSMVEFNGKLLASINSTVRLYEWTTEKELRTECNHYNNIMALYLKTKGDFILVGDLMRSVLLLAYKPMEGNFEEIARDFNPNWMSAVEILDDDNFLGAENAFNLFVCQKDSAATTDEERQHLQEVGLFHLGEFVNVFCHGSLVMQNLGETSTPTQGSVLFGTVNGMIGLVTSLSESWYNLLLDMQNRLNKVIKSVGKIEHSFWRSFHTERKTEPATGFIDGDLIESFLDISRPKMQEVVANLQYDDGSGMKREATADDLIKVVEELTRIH

DC50	Compound
> 300 nM	CCOc1ccc(F)c(NC(=O)OCc2ccc3c(c2)C(=O)N(C2CCC(=O)NC2=O)C3)c1 (stereo not shown) [Compound 223, (2-(2,6-dioxopiperidin-3-yl)-3-oxoisoindolin-5-yl)methyl (5-ethoxy-2-fluorophenyl)carbamate]
> 300 nM	O=C1CCC(N2Cc3ccc(COC(=O)NC45C6C7C4C4C5C6C74c4ccccc4)cc3C2=O)C(=O)N1 (stereo not shown) [Compound 225, (2-(2,6-dioxopiperidin-3-yl)-3-oxoisoindolin-5-yl)methyl (4-phenylcuban-1-yl)carbamate]
30 to 300 nM	CCCOc1ccc(F)c(NC(=O)OCc2ccc3c(c2)C(=O)N(C2CCC(=O)NC2=O)C3)c1 (stereo not shown) [Compound 226, (2-(2,6-dioxopiperidin-3-yl)-3-oxoisoindolin-5-yl)methyl (2-fluoro-5-propoxyphenyl)carbamate]
> 300 nM	O=C1CCC(N2Cc3ccc(COC(=O)Nc4cc(OC(F)F)c(F)cn4)cc3C2=O)C(=O)N1 (stereo not shown) [Compound 227, (2-(2,6-dioxopiperidin-3-yl)-3-oxoisoindolin-5-yl)methyl (4-(difluoromethoxy)-5-fluoropyridin-2-yl)carbamate]
30 to 300 nM	COc1cc(NC(=O)OCc2ccc3c(c2)C(=O)N(C2CCC(=O)NC2=O)C3)c(F)cc1C (stereo not shown) [Compound 229, (2-(2,6-dioxopiperidin-3-yl)-3-oxoisoindolin-5-yl)methyl (2-fluoro-5-methoxy-4-methylphenyl)carbamate]
< 30 nM	Cc1cc(F)c(NC(=O)OCc2ccc3c(c2)C(=O)N(C2CCC(=O)NC2=O)C3)cc1OC(C)C (stereo not shown) [Compound 230, (2-(2,6-dioxopiperidin-3-yl)-3-oxoisoindolin-5-yl)methyl (2-fluoro-5-isopropoxy-4-methylphenyl)carbamate]
< 30 nM	CCCOc1cc(NC(=O)OCc2ccc3c(c2)C(=O)N(C2CCC(=O)NC2=O)C3)c(F)cc1C (stereo not shown) [Compound 231, (2-(2,6-dioxopiperidin-3-yl)-3-oxoisoindolin-5-yl)methyl (2-fluoro-4-methyl-5-propoxyphenyl)carbamate]
30 to 300 nM	C[C@@H]1CCCN1c1cnc(NC(=O)OCc2ccc3c(c2)C(=O)N(C2CCC(=O)NC2=O)C3)c(F)c1 (stereo partly drawn) [Compound 232, (2-(2,6-dioxopiperidin-3-yl)-3-oxoisoindolin-5-yl)methyl (3-fluoro-5-((R)-2-methylpyrrolidin-1-yl)pyridin-2-yl)carbamate]
< 30 nM	CC1(c2ccc(NC(=O)OCc3ccc4c(c3)C(=O)N(C3CCC(=O)NC3=O)C4)cc2Cl)COC1 (stereo not shown) [Compound 236, (2-(2,6-dioxopiperidin-3-yl)-3-oxoisoindolin-5-yl)methyl (3-chloro-4-(3-methyloxetan-3-yl)phenyl)carbamate]
30 to 300 nM	Cc1cc(NC(=O)OCc2ccc3c(c2)C(=O)N(C2CCC(=O)NC2=O)C3)ncc1N1CCC[C@H]1C (stereo partly drawn) [Compound 237, (2-(2,6-dioxopiperidin-3-yl)-3-oxoisoindolin-5-yl)methyl (4-methyl-5-((R)-2-methylpyrrolidin-1-yl)pyridin-2-yl)carbamate]
< 30 nM	O=C1CCC(N2Cc3ccc(COC(=O)Nc4cccc(Cl)c4)cc3C2=O)C(=O)N1 (stereo not shown) [Compound 239, (2-(2,6-dioxopiperidin-3-yl)-3-oxoisoindolin-5-yl)methyl (3-chlorophenyl)carbamate]
30 to 300 nM	CC1(c2ccc(NC(=O)OCc3ccc4c(c3)C(=O)N(C3CCC(=O)NC3=O)C4)cc2F)COC1 (stereo not shown) [Compound 240, (2-(2,6-dioxopiperidin-3-yl)-3-oxoisoindolin-5-yl)methyl (3-fluoro-4-(3-methyloxetan-3-yl)phenyl)carbamate]

The next lines start with the compound.

Compound	DC50
Cc1cc(F)c(NC(=O)OCc2ccc3c(c2)C(=O)N(C2CCC(=O)NC2=O)C3)cc1F (stereo not shown) [Compound 213, (2-(2,6-dioxopiperidin-3-yl)-3-oxoisoindolin-5-yl)methyl (2,5-difluoro-4-methylphenyl)carbamate]	> 300 nM
O=C1CCC(N2Cc3ccc(COC(=O)NC45CC(N6CCOCC6)(C4)C5)cc3C2=O)C(=O)N1 (stereo not shown) [Compound 215, (2-(2,6-dioxopiperidin-3-yl)-3-oxoisoindolin-5-yl)methyl (3-morpholinobicyclo[1.1.1]pentan-1-yl)carbamate]	> 300 nM
O=C1CCC(N2Cc3ccc(COC(=O)Nc4cccc(C5CC5)c4)cc3C2=O)C(=O)N1 (stereo not shown) [Compound 216, (2-(2,6-dioxopiperidin-3-yl)-3-oxoisoindolin-5-yl)methyl (3-cyclopropylphenyl)carbamate]	< 30 nM
CC(C)c1cccc(NC(=O)OCc2ccc3c(c2)C(=O)N(C2CCC(=O)NC2=O)C3)c1 (stereo not shown) [Compound 217, (2-(2,6-dioxopiperidin-3-yl)-3-oxoisoindolin-5-yl)methyl (3-isopropylphenyl)carbamate]	< 30 nM
O=C1CCC(N2Cc3ccc(COC(=O)NC45CC(C(F)F)(C4)C5)cc3C2=O)C(=O)N1 (stereo not shown) [Compound 219, (2-(2,6-dioxopiperidin-3-yl)-3-oxoisoindolin-5-yl)methyl (3-(difluoromethyl)bicyclo[1.1.1]pentan-1-yl) carbamate]	> 300 nM
CCc1cccc(NC(=O)OCc2ccc3c(c2)C(=O)N(C2CCC(=O)NC2=O)C3)c1 (stereo not shown) [Compound 220, (2-(2,6-dioxopiperidin-3-yl)-3-oxoisoindolin-5-yl)methyl (3-ethylphenyl)carbamate]	< 30 nM
CC(C)Oc1ccc(F)c(NC(=O)OCc2ccc3c(c2)C(=O)N(C2CCC(=O)NC2=O)C3)c1 (stereo not shown) [Compound 221, (2-(2,6-dioxopiperidin-3-yl)-3-oxoisoindolin-5-yl)methyl (2-fluoro-5-isopropoxyphenyl)carbamate]	30 to 300 nM
CC(C)(C)Oc1ccc(F)c(NC(=O)OCc2ccc3c(c2)C(=O)N(C2CCC(=O)NC2=O)C3)c1 (stereo not shown) [Compound 222, (2-(2,6-dioxopiperidin-3-yl)-3-oxoisoindolin-5-yl)methyl (5-(tert-butoxy)-2-fluorophenyl)carbamate]	30 to 300 nM
CCOc1cc(NC(=O)OCc2ccc3c(c2)C(=O)N(C2CCC(=O)NC2=O)C3)c(F)cc1C (stereo not shown) [Compound 228]	< 30 nM
Cc1cc(F)c(NC(=O)OCc2ccc3c(c2)C(=O)N(C2CCC(=O)NC2=O)C3)cc1C(F)(F)F (stereo not shown) [Compound 233]	30 to 300 nM
CC(F)(F)c1ccc(F)c(NC(=O)OCc2ccc3c(c2)C(=O)N(C2CCC(=O)NC2=O)C3)c1 (stereo not shown) [Compound 234]	> 300 nM
CC(C)(C)c1ccc(F)c(NC(=O)OCc2ccc3c(c2)C(=O)N(C2CCC(=O)NC2=O)C3)c1 (stereo not shown) [Compound 235]	30 to 300 nM
O=C1CCC(N2Cc3ccc(COC(=O)Nc4ccc(C(O)C(F)(F)F)nc4)cc3C2=O)C(=O)N1 (stereo not shown) [Compound 238]	> 300 nM
